Experimental data: article PMC4210897, “Antimicrobial Activity of Peptides Derived from Olive Flounder Lipopolysaccharide Binding Protein/Bactericidal Permeability-Increasing Protein (LBP/BPI)” (Marine Drugs, 2014)
Where no end group is shown, it is not given here.

Experiments:
E. coli D31 = test: URDA, MEC; type: cell-based, Escherichia coli; details: E. coli D31, Gram −, pH 6.6, 37 °C, triplicate averaged
Procedure: (§1) The antimicrobial activity of the purified peptide was assessed as described previously. We tested the synthetic peptides against several Gram-positive bacteria including two Bacillus subtilis strains, Micrococcus luteus, Staphylococcus aureus, and Streptococcus iniae, Gram-negative bacteria including three Escherichia coli strains, Aeromonas hydrophila, Edwardsiella tarda, Pseudomonas aeruginosa, Vibrio parahemolyticus, and Salmonella enteric, as well as the yeast Candida albicans. All strains were grown overnight for 18 h in trypticase soy broth (TSB) or sabouraud dextrose broth (SDB) at the appropriate temperature (25 °C for A. hydrophila, E. tarda, P. aeruginosa, S. iniae, and V. parahemolyticus and 37 °C for the other strains). After an overnight incubation, the bacterial and C. albicans suspensions were diluted to a McFarland turbidity standard of 0.5 (Vitek Colorimeter #52-1210; Hach, Loveland, CO, USA) corresponding to ~10^8 CFU/mL for bacteria and ~10^6 CFU/mL for C. albicans. One-half milliliter of diluted bacterial or C. albicans suspension was added to 9.5 mL of underlay gel containing 5 × 10^6 CFU/mL or 5 × 10^4 CFU/mL in 10 mM phosphate buffer (PB; pH 6.6) with 0.03% TSB or 0.03% SDB and 1% Type I (low EEO) agarose. The purified peptide was serially diluted twofold in 5 μL of acidified water (0.01% HAc), and each dilution was added to 2.5-mm-diameter wells made in the 1-mm-thick underlay gels. After incubation for 3 h at either 25 °C (for A. hydrophila, E. tarda, P. aeruginosa, S. iniae, and V. parahemolyticus) or 37 °C (the other strains), the bacterial or yeast suspension was overlaid with 10 mL of double-strength overlay gel containing 6% TSB or 6% SDB with 10 mM PB (pH 6.6) in 1% agarose. Plates were incubated for an additional 18–24 h, after which the clearing zone diameters were measured. After subtracting the diameter of the well, the clearing zone diameter was expressed in units (0.1 mm = 1 U).
All tested bacteria and yeast were prepared as described above. The minimal effective concentration (MEC, μg/mL) of the synthetic peptides was calculated as the x-intercept of a plot of units against the log10 of the peptide concentration. […] The antimicrobial assay was performed in triplicate and the results were averaged.

[1] = system: human red blood cells (RBCs, blood type O); test: Hemolytic activity assay; type: cell-based; details: 3% hematocrit, 60 min, 37 °C; for Hemolysis against RBCs up to 100 μg/mL: A405, up to concentrations of 100 μg/mL, triplicate averaged
Procedure: The hemolytic activity of the peptides was determined using human red blood cells (RBCs, blood type O). The RBCs were collected from citric acid-treated blood by centrifugation at 3000× g for 5 min and washed three times with 10 mM PB (pH 7.4) containing 150 mM NaCl to remove the plasma and buffy coat. A suspension of 3% hematocrit in buffer with or without peptides was incubated for 60 min at 37 °C. Hemolysis was expressed as the hemoglobin content obtained from the absorbance of the supernatant at 405 nm after centrifugation at 3000× g for 5 min. A 100% hemolysis was determined based on hemoglobin release after the addition of 0.1% Triton X-100. The hemolysis percentage of the peptides was calculated using the following formula: % Hemolysis = [(Abs405nm in the peptide solution − Abs405nm in buffer)/(Abs405nm in 0.1% Triton X-100 − Abs405nm in buffer)] × 100
Hemolytic assays were performed in triplicate and the results were averaged.

C. albicans = test: URDA of non-heated and heated peptides; type: cell-based, Candida albicans; details: non-heated and after 100 °C for 10 min
Procedure: as §1
(§2) To investigate the effect of temperature on ofLBP analogs, antimicrobial activity was tested using an ultrasensitive radial diffusion assay (URDA) against two bacteria including V. harveyi and S. iniae, as well as a yeast, C. albicans. To explore thermal stability, the ofLBP analogs were incubated at 100 °C for 10 min. After heat treatment, the peptides were cooled and used for URDA as described above.

S. iniae = test: URDA of non-heated and heated peptides; type: cell-based, Streptococcus iniae; details: non-heated and after 100 °C for 10 min
Procedure: as §1, §2

E. coli ML35p = test: Killing kinetic assay; type: cell-based, Escherichia coli; details: 10^6 CFU/mL, 37 °C; for Time to kill E. coli ML35p at 5× MEC: triplicate averaged
Procedure: To determine the killing activities of ofLBP-derived analogs, kinetic studies were performed using B. subtilis KCTC1021 and E. coli ML35p at 1× MEC and 5× MEC concentrations. Overnight culture of B. subtilis KCTC1021 and E. coli ML35p were diluted in TBS to a cell density of 10^6 CFU/mL and 1 mL of each suspension was exposed to each ofLBP-derived analog and incubated at 37 °C overnight. The resulting colonies were counted. Percent killing was calculated as the proportion of live bacteria at a given time point following the addition of peptide compared to the number of bacteria present prior to the addition of peptide. Control cultures of each bacterium were incubated without any peptide and assayed at time points corresponding to the test culture assays to ensure no spontaneous loss of viability. Killing kinetic assays were also performed in triplicate, and the results were averaged.

V. harveyi = test: URDA of non-heated and heated peptides; type: cell-based, Vibrio harveyi; details: non-heated and after 100 °C for 10 min
λ-HindIII-digested DNA = test: DNA-binding assay (gel retardation, EMSA); details: λ-HindIII-digested DNA 50 ng, 5 min room temperature, 1.0% agarose; for Electrophoretic mobility of DNA at 0.625 μg peptide: peptide 0.625 μg
Procedure: DNA binding assays were performed as described previously with minor modifications. This test assessed peptide-DNA binding by examining the inhibition of the rate of migration of DNA bands through agarose gels. A commercial molecular weight marker, λ-HindIII-digested DNA (50 ng) (Roche, Basel, Switzerland), was mixed with varying amounts of peptide (0 μg, 0.156 μg, 0.313 μg, 0.625 μg, and 1.25 μg) in 0.01% acetic acid, incubated at room temperature for 5 min, and then electrophoresed in 1.0% agarose gels containing 0.5 μg/mL ethidium bromide (EtBr).

DNA polymerase = details: PCR of E. coli 16S rDNA; for DNA polymerase inhibitory ability: 100 ng genomic DNA, 30 cycles
Procedure: The ofLBP analogs were dissolved in 0.01% acetic acid at a concentration of 1000 μg/mL. To assess PCR inhibition, various concentrations of the ofLBP analogs (2.5, 1.25, 0.625, and 0.313 μg/mL) were added to the respective reaction mixtures. E. coli genomic DNA (100 ng) was used as a template for PCR with the following primer pairs: 16S-F1, 5′-[…]-3′ and 16S-R3, 5′-[…]-3′. The predicted amplicon is ~1.5 kb in length. Each PCR comprised 30 cycles each of 30 s at 95 °C, 30 s at 55 °C, and 1 min at 72 °C. After PCR, all amplicons were electrophoresed in 1.0% agarose gels containing EtBr.

Substance	Minimal Effectives Concentration (E. coli D31) [µg/mL]	Hemolytic activity at 50 μg/mL [1]	Antimicrobial activity against C. albicans (URDA) (C. albicans)	Antimicrobial activity against S. iniae (URDA) (S. iniae)	Killing of E. coli ML35p at 1× MEC (E. coli ML35p)	Time to kill E. coli ML35p at 5× MEC (E. coli ML35p) [min]	Hemolytic activity from 50–100 μg/mL ([1]; concentrations of 50–100 μg/mL, 100% = 0.1% Triton X-100)	Antimicrobial activity against V. harveyi (URDA) (V. harveyi)	Electrophoretic mobility of DNA at 0.625 μg peptide (λ-HindIII-digested DNA)	DNA polymerase inhibitory ability (DNA polymerase)	DNA polymerase inhibition at all tested concentrations (DNA polymerase; 0.313–2.5 μg peptide)	Hemolysis against RBCs up to 100 μg/mL [1]	DNA polymerase inhibition at 1.25 μg (DNA polymerase; 1.25 μg peptide, compared to ofLBP 6A)	Electrophoretic mobility of DNA at 1.25 μg peptide (λ-HindIII-digested DNA; peptide 1.25 μg)
RFPGLMMKLLV-NH2 (C-terminus assumed) [ofLBP 1N]	1.3	did not show significant hemolytic activity	significant activity	significant activity										
Piscidin 1 [reference compound]	2.0				did not kill	≤ 40								
RFPKLMMKLLV-NH2 [ofLBP 2A]	0.5	did not show significant hemolytic activity	significant activity	significant activity			28%–50%							
MKLVKTWLKVLK-NH2 [ofLBP 6A]	2.6	did not show significant hemolytic activity	significant activity	significant activity	did not kill	≤ 60		significant activity	almost completely inhibited	strong DNA polymerase inhibitory ability	complete inhibitory activity			
KLVKTWLKVLK [ofLBP 5A]	0.9		significant activity						almost completely inhibited	strong DNA polymerase inhibitory ability		did not cause hemolysis	less inhibitory activity	
KLVKTQLKVLK [ofLBP 4N]			did not show any antimicrobial activity	did not show any antimicrobial activity				did not show any antimicrobial activity	slightly inhibited	no DNA polymerase inhibitory ability		did not cause hemolysis		almost completely inhibited
